System: rice
Assay: Low temperature assay on rice seedlings
Assay type: in vivo
Description: According to a low temperature assay, we measured parameters including plant height, number of leaf, area of leaf, number of tiller, weight of root at low temperature to completely determine effects of the natural brassinolide analogues on the resistance to low temperature of a plant.
The natural brassinolide analogues, BR1, BR2, BR3, BR4, BR5 and BR6, used herein, were those prepared by the method of Example 1. Respectively the analogues were dissolved into 95% (V/V) ethanol solution, and then diluted with pure water to 1 mg/L, 0.1 mg/L, 0.01 mg/L, 0.001 mg/L and 0.0001 mg/L. In addition, pure water was used as a control.
After rice seeds were disinfected by using 5% sodium hypochlorite solution treatment, they were rinsed with distilled water until their pH>7, placed into a petri dish in a dark incubator, and cultured by using water at 30° C.±2° C. for 9 days. Then respectively the nine-day-old etiolated seedlings of rice were immersed in the above solutions containing different concentrations of the natural brassinolide analogues or pure water, and cultured at the temperature of 1° C., 2° C., 3° C., 4° C. and 5° C. for 24 hr. The parameters including plant height, area of leaf and weight of root after 3, 6, 9 and 12 days and number of leaf and number of tiller after 12 days were measured.

C=C(C(C)C)[C@@H](O)[C@H](O)[C@@H](C)[C@H]1CCC2C3COC(=O)C4C[C@H](O)[C@H](O)C[C@]4(C)C3CC[C@@]21C (stereo partly shown) [BR3]
Area of leaf (0.001 mg/l, 2 °C, 6 days): 11.6 cm^2
Height (0.001 mg/l, 2 °C, 6 days): 7.1 cm
Weight of root (0.001 mg/l, 2 °C, 6 days): 3.0 g
Area of leaf (0.001 mg/l, 2 °C, 9 days): 12 cm^2
Height (0.001 mg/l, 2 °C, 9 days): 7.1 cm
Weight of root (0.001 mg/l, 2 °C, 9 days): 3.1 g
Area of leaf (0.001 mg/l, 2 °C, 12 days): 13.1 cm^2
Height (0.001 mg/l, 2 °C, 12 days): 7.3 cm
Number of leaf (0.001 mg/l, 2 °C, 12 days): 3
Number of tiller (0.001 mg/l, 2 °C, 12 days): 3
Weight of root (0.001 mg/l, 2 °C, 12 days): 3.9 g
Area of leaf (0.001 mg/l, 3 °C, 3 days): 10 cm^2
Height (0.001 mg/l, 3 °C, 3 days): 7 cm
Weight of root (0.001 mg/l, 3 °C, 3 days): 2.5 g
Area of leaf (0.001 mg/l, 3 °C, 6 days): 12 cm^2
Height (0.001 mg/l, 3 °C, 6 days): 7.2 cm
Weight of root (0.001 mg/l, 3 °C, 6 days): 2.7 g
Area of leaf (0.001 mg/l, 3 °C, 9 days): 12.2 cm^2
Height (0.001 mg/l, 3 °C, 9 days): 7.3 cm
Weight of root (0.001 mg/l, 3 °C, 9 days): 2.9 g
Area of leaf (0.001 mg/l, 3 °C, 12 days): 13 cm^2
Height (0.001 mg/l, 3 °C, 12 days): 7.4 cm
Number of leaf (0.001 mg/l, 3 °C, 12 days): 3
Number of tiller (0.001 mg/l, 3 °C, 12 days): 2
Weight of root (0.001 mg/l, 3 °C, 12 days): 2.9 g
Area of leaf (0.001 mg/l, 4 °C, 3 days): 10 cm^2
Height (0.001 mg/l, 4 °C, 3 days): 7.1 cm
Weight of root (0.001 mg/l, 4 °C, 3 days): 2.5 g
Area of leaf (0.001 mg/l, 4 °C, 6 days): 12 cm^2
Height (0.001 mg/l, 4 °C, 6 days): 7.3 cm
Weight of root (0.001 mg/l, 4 °C, 6 days): 2.6 g
Area of leaf (0.001 mg/l, 4 °C, 9 days): 13 cm^2
Height (0.001 mg/l, 4 °C, 9 days): 7.4 cm
Weight of root (0.001 mg/l, 4 °C, 9 days): 2.9 g
Area of leaf (0.001 mg/l, 4 °C, 12 days): 13.1 cm^2
Height (0.001 mg/l, 4 °C, 12 days): 7.5 cm
Number of leaf (0.001 mg/l, 4 °C, 12 days): 3
Number of tiller (0.001 mg/l, 4 °C, 12 days): 2
Weight of root (0.001 mg/l, 4 °C, 12 days): 2.9 g
Area of leaf (0.001 mg/l, 5 °C, 3 days): 10.2 cm^2
Height (0.001 mg/l, 5 °C, 3 days): 7.2 cm
Weight of root (0.001 mg/l, 5 °C, 3 days): 2.8 g
Area of leaf (0.001 mg/l, 5 °C, 6 days): 14 cm^2
Height (0.001 mg/l, 5 °C, 6 days): 7.5 cm
Weight of root (0.001 mg/l, 5 °C, 6 days): 2.9 g
Area of leaf (0.001 mg/l, 5 °C, 9 days): 15.4 cm^2
Height (0.001 mg/l, 5 °C, 9 days): 7.8 cm
Weight of root (0.001 mg/l, 5 °C, 9 days): 3.0 g
Area of leaf (0.001 mg/l, 5 °C, 12 days): 16 cm^2
Height (0.001 mg/l, 5 °C, 12 days): 7.9 cm
Number of leaf (0.001 mg/l, 5 °C, 12 days): 3
Number of tiller (0.001 mg/l, 5 °C, 12 days): 3
Weight of root (0.001 mg/l, 5 °C, 12 days): 3.7 g
Area of leaf (0.01 mg/l, 1 °C, 3 days): 10 cm^2
Height (0.01 mg/l, 1 °C, 3 days): 7.0 cm
Weight of root (0.01 mg/l, 1 °C, 3 days): 2.8 g
Area of leaf (0.01 mg/l, 1 °C, 6 days): 11.6 cm^2
Height (0.01 mg/l, 1 °C, 6 days): 7.1 cm
Weight of root (0.01 mg/l, 1 °C, 6 days): 3.0 g
Area of leaf (0.01 mg/l, 1 °C, 9 days): 12.4 cm^2
Height (0.01 mg/l, 1 °C, 9 days): 7.4 cm
Weight of root (0.01 mg/l, 1 °C, 9 days): 3.1 g
Area of leaf (0.01 mg/l, 1 °C, 12 days): 13.6 cm^2
Height (0.01 mg/l, 1 °C, 12 days): 7.5 cm
Number of leaf (0.01 mg/l, 1 °C, 12 days): 3
Number of tiller (0.01 mg/l, 1 °C, 12 days): 3
Weight of root (0.01 mg/l, 1 °C, 12 days): 3.9 g
Area of leaf (0.01 mg/l, 2 °C, 3 days): 10.1 cm^2
Height (0.01 mg/l, 2 °C, 3 days): 7.1 cm
Weight of root (0.01 mg/l, 2 °C, 3 days): 2.8 g
Area of leaf (0.01 mg/l, 2 °C, 6 days): 11 cm^2
Height (0.01 mg/l, 2 °C, 6 days): 7.2 cm
Weight of root (0.01 mg/l, 2 °C, 6 days): 3.1 g
Area of leaf (0.01 mg/l, 2 °C, 9 days): 12.5 cm^2
Height (0.01 mg/l, 2 °C, 9 days): 7.4 cm
Weight of root (0.01 mg/l, 2 °C, 9 days): 3 g
Area of leaf (0.01 mg/l, 2 °C, 12 days): 13.4 cm^2
Height (0.01 mg/l, 2 °C, 12 days): 7.5 cm
Number of leaf (0.01 mg/l, 2 °C, 12 days): 3
Number of tiller (0.01 mg/l, 2 °C, 12 days): 3
Weight of root (0.01 mg/l, 2 °C, 12 days): 3.2 g
Area of leaf (0.01 mg/l, 3 °C, 3 days): 10.2 cm^2
Height (0.01 mg/l, 3 °C, 3 days): 7.1 cm
Weight of root (0.01 mg/l, 3 °C, 3 days): 2.5 g
Area of leaf (0.01 mg/l, 3 °C, 6 days): 12 cm^2
Height (0.01 mg/l, 3 °C, 6 days): 7.3 cm
Weight of root (0.01 mg/l, 3 °C, 6 days): 2.7 g
Area of leaf (0.01 mg/l, 3 °C, 9 days): 12.1 cm^2

Reference: patent US9326506B2, “Preparation method, agricultural composition and applications of natural brassinolide analogs” (CHENGDU NEWSUN CROPSCIENCE CO., LTD, priority 2012, dated 2016)
